The NIST ThermoML archive (doi:10.1021/je101361u)

Assay: xn = mol fraction of the nth substance listed
Conditions: 101.3 kPa, Liquid

COCCOC [1,2-dimethoxyethane] + ClCCCl
mass density [kg/m3]
Conditions	308.15 K	313.15 K	318.15 K	323.15 K	328.15 K	333.15 K
x2 = 0.0251	–	852.25	846.59	840.89	835.13	829.32
x2 = 0.05	–	859.77	854.09	848.36	842.55	836.72
x2 = 0.0501	–	859.82	854.13	848.39	842.6	836.76
x2 = 0.075	–	867.42	861.7	855.93	850.11	844.24
x2 = 0.1	–	875.11	869.35	863.55	857.7	851.8
x2 = 0.1552	–	892.54	886.71	880.84	874.92	868.95
x2 = 0.2001	–	906.96	901.08	895.15	889.17	883.15
x2 = 0.2501	–	923.37	917.42	911.42	905.37	899.27
x2 = 0.3002	–	940.18	934.15	928.08	921.97	915.79
x2 = 0.35	–	957.24	951.14	945	938.81	932.56
x2 = 0.4001	–	974.8	968.62	962.41	956.14	949.82
x2 = 0.45	–	992.71	986.46	980.16	973.82	967.42
x2 = 0.5	1017.36	1011.06	1004.73	998.35	991.93	985.45
x2 = 0.5001	1017.45	1011.16	1004.83	998.45	992.02	985.53
x2 = 0.55	1036.29	1029.91	1023.49	1017.03	1010.51	1003.94
x2 = 0.6001	1055.67	1049.2	1042.69	1036.13	1029.53	1022.87
x2 = 0.65	1075.5	1068.94	1062.34	1055.68	1048.98	1042.24
x2 = 0.7	1095.88	1089.21	1082.51	1075.76	1068.97	1062.12
x2 = 0.75	1116.88	1110.11	1103.31	1096.45	1089.55	1082.61
x2 = 0.8	1138.31	1131.44	1124.52	1117.56	1110.55	1103.5
x2 = 0.85	1160.61	1153.62	1146.58	1139.51	1132.39	1125.22
x2 = 0.9	1183.44	1176.32	1169.16	1161.97	1154.73	1147.44
x2 = 0.925	1195	1187.82	1180.61	1173.35	1166.05	1158.7
x2 = 0.975	1218.9	1211.59	1204.25	1196.86	1189.43	1181.97
